Tests used:
[1] = tested on: imported cabbage worm; assay: Field trial, imported cabbage worm on sprouting broccoli; format: in vivo
Method: A83543A was evaluated in field trials.

[2] = tested on: blow fly larvae (LBF); assay: Guinea pig systemic test, blow fly larvae; format: in vivo
Method: Adult guinea pigs are used in this test system. The compounds to be tested are dissolved in aqueous polyvinyl pyrrolidone or in polyethylene glycol 200, and an appropriate amount of the solution is administered either orally or by intraperitoneal injection.
Blood is drawn from the guinea pigs at 30 minutes except as noted, and the samples of blood are centrifuged. Dental wicks are saturated with the blood serum, and then exposed in Petri dishes to adult stable flies; blow fly larvae are exposed in test tubes. After 24 and 48 hours, the insects are examined, and the number of dead are counted. The results of the tests are recorded as the percent of the insects which are killed.

[3] = tested on: CRW (Southern corn rootworm); assay: Greenhouse test against CRW; format: in vivo, Diabrotica undecimpunctata howardi
Method: (§1) Each test compound was formulated by dissolving the compound in an acetone/alcohol (1:1) mixture containing 23 g of "Toximul R" (sulfonate/nonionic emulsifier blend) and 13 g of "Toximul S" (sulfonate/nonionic emulsifier blend) per liter. These mixtures were then diluted with water to give the indicated concentrations.
(§2) Additional insects were evaluated using similar formulations and evaluation procedures, with the exceptions noted.
(§3) After standard exposure periods, percent mortality was evaluated.

[4] = tested on: CA (cotton aphid); assay: Greenhouse test against CA; format: in vivo; details: Aphis gossypii, squash
Method: as §1
Two-spotted spider mites (Tetranychus urticae Koch) and cotton or melon aphids (Aphis gossypii Glover) were introduced on squash cotyledons and allowed to establish on both leaf surfaces. Other plants in the same treatment pot were left uninfested. The leaves were then sprayed with 5 mL of test solution using a DeVilbiss atomizing sprayer at 10 psi. Both surfaces of the leaves were covered until runoff and then allowed to dry for one hour. Two uninfested leaves were then excised and placed into a Petri dish containing Southern armyworm (Spodoptera eridania Cramer).
as §3

[5] = tested on: SAW (Southern armyworm) larvae; assay: Foliar/bushbean test against SAW larvae; format: in vivo; details: Spodoptera eridania, foliar; for inhibition at 0.5 ppm: 0.50 ppm
Method: as §1
[…] Other plants in the same treatment pot were left uninfested. The leaves were then sprayed with 5 mL of test solution using a DeVilbiss atomizing sprayer at 10 psi. Both surfaces of the leaves were covered until runoff and then allowed to dry for one hour. Two uninfested leaves were then excised and placed into a Petri dish containing Southern armyworm (Spodoptera eridania Cramer).
as §2
(§4) After standard exposure periods, percent mortality was evaluated. The following abbreviations are used:
^a Days between treatment and observation
^b Mean of replicates tested

[6] = tested on: neonate CBW (cotton bollworm) larvae; assay: Percent control of neonate CBW larvae by A83543 components, topical pipet method; format: in vivo, Heliothis zea; details: topical, 24 h, read-out: Percent Control
Method: as §1, §2, §4
^1 Treatments with the same letter in parentheses are similar at the
^2 Topical pipet method with 20 larve/replicate and 4 replicates; one
day between treatment and observation.

[7] = tested on: Haemonchus contortus; assay: In vitro test against sheep intestinal nematode; details: read-out: worms killed
From the text: In in vitro tests against the sheep intestinal nematode Haemonchus contortus, A83543A killed 30% of the worms at a concentration of 100 ppm.

Question: `CC[C@H]1CCC[C@H](O[C@H]2CC[C@H](N(C)C)[C@@H](C)O2)[C@@H](C)C(=O)C2=C[C@@H]3[C@@H](C=C[C@@H]4C[C@@H](O[C@@H]5O[C@@H](C)[C@H](OC)[C@@H](OC)[C@H]5OC)C[C@@H]34)[C@@H]2CC(=O)O1` [A83543A] was tested. Which “activity in field trials” value [1] did it give?
Answer: showed activity

Question: What about the “LBF activity (% mortality)” value ([2]; 10 mg/kg IP, 30 min) of the same compound?
Answer: 0%

Question: And the “% Activity LBF” value ([2]; 10 mg/kg IP, bled 30 min)?
Answer: 0%

Question: What about the “% Activity LBF” value ([2]; 10 mg/kg IP, bled 5 hr) of the same compound?
Answer: 0%

Question: What about the “% Activity LBF” value ([2]; 10 mg/kg IP, bled 24 hr) of the same compound?
Answer: 0%

Question: And the “LBF activity (% mortality)” value ([2]; 20 mg/kg IP, 30 min)?
Answer: 0%

Question: And the “% Activity LBF” value ([2]; 20 mg/kg IP, bled 30 min)?
Answer: 0%

Question: What about the “% Activity LBF” value ([2]; 20 mg/kg IP, bled 5 hr) of the same compound?
Answer: 0%

Question: What about the “% Activity LBF” value ([2]; 20 mg/kg IP, bled 24 hr) of the same compound?
Answer: 0%

Question: And the “LBF activity (% mortality)” value ([2]; 30 mg/kg IP)?
Answer: 90%

Question: And the “% Activity LBF” value ([2]; 30 mg/kg IP, bled 30 min)?
Answer: 90%

Question: And the “% Activity LBF” value ([2]; 30 mg/kg IP, bled 5 hr)?
Answer: 50%

Question: What about the “% Activity LBF” value ([2]; 30 mg/kg IP, bled 24 hr) of the same compound?
Answer: 30%

Question: And the “LBF activity (% mortality)” value ([2]; 50 mg/kg IP, 30 min)?
Answer: 100%

Question: And the “% Activity LBF” value ([2]; 50 mg/kg IP, bled 30 min)?
Answer: 100%

Question: And the “% Activity LBF” value ([2]; 50 mg/kg IP, bled 5 hr)?
Answer: 95%

Question: And the “% Activity LBF” value ([2]; 50 mg/kg IP, bled 24 hr)?
Answer: 25%

Question: What about the “LBF activity (% mortality)” value ([2]; 50 mg/kg OR (oral), 30 min) of the same compound?
Answer: 100%

Question: What about the “% Activity LBF” value ([2]; 50 mg/kg oral, bled 5 hr) of the same compound?
Answer: 100%

Question: What about the “% Activity LBF” value ([2]; 50 mg/kg oral, bled 24 hr) of the same compound?
Answer: 0%

Question: And the inhibition at 3 ppm ([3]; 3 ppm, second series)?
Answer: 0%

Question: And the inhibition at 3.75 ppm ([3]; 3.75 ppm)?
Answer: 0%

Question: What about the inhibition at 6 ppm ([3]; 6 ppm, second series) of the same compound?
Answer: 30%

Question: What about the inhibition at 7.5 ppm ([3]; 7.5 ppm) of the same compound?
Answer: 10%

Question: And the inhibition at 15 ppm ([3]; 15 ppm)?
Answer: 50%

Question: What about the inhibition at 30 ppm ([3]; 30 ppm) of the same compound?
Answer: 100%

Question: And the inhibition at 25 ppm ([4]; 25 ppm, second series)?
Answer: 0%

Question: What about the inhibition at 50 ppm ([4]; first series) of the same compound?
Answer: 0%

Question: What about the inhibition at 50 ppm ([4]; second series) of the same compound?
Answer: 40%

Question: And the inhibition at 100 ppm ([4]; first series)?
Answer: 0%

Question: And the inhibition at 100 ppm ([4]; second series)?
Answer: 80%

Question: And the inhibition at 1 ppm ([5]; 72 h, neonate, 3 days)?
Answer: 10%

Question: What about the inhibition at 5 ppm ([5]; 72 h, neonate, 3 days) of the same compound?
Answer: 40%

Question: And the inhibition at 10 ppm ([5]; 72 h, neonate, 3 days)?
Answer: 100%

Question: What about the inhibition at 50 ppm ([5]; 72 h, neonate, 3 days) of the same compound?
Answer: 100%

Question: And the inhibition at 100 ppm ([5]; 72 h, neonate, 3 days)?
Answer: 100%

Question: What about the inhibition at 10 ppm ([5]; 96 h, fifth instar, 4 days) of the same compound?
Answer: 0%

Question: And the inhibition at 50 ppm ([5]; 96 h, fifth instar, 4 days)?
Answer: 0%

Question: And the inhibition at 0.5 ppm ([5]; 96 h, neonate, 4 days)?
Answer: 0%

Question: And the inhibition at 1 ppm ([5]; 96 h, neonate, 4 days)?
Answer: 66.7%

Question: What about the inhibition at 5 ppm ([5]; 96 h, neonate, 4 days) of the same compound?
Answer: 100%

Question: What about the inhibition at 10 ppm ([5]; 96 h, neonate, 4 days) of the same compound?
Answer: 100%

Question: What about the inhibition at 50 ppm ([5]; 96 h, neonate, 4 days) of the same compound?
Answer: 100%

Question: What about the inhibition at 1 ppm ([5]; 96 h, second instar, 4 days) of the same compound?
Answer: 0%

Question: And the inhibition at 5 ppm ([5]; 96 h, second instar, 4 days)?
Answer: 0%

Question: And the inhibition at 10 ppm ([5]; 96 h, second instar, 4 days)?
Answer: 80%

Question: And the inhibition at 50 ppm ([5]; 96 h, second instar, 4 days)?
Answer: 80%

Question: And the inhibition at 100 ppm ([5]; 96 h, second instar, 4 days)?
Answer: 100%

Question: What about the inhibition at 0.5 ppm ([5]; 96 h, third instar, 4 days) of the same compound?
Answer: 0%

Question: And the inhibition at 1 ppm ([5]; 96 h, third instar, 4 days)?
Answer: 0%

Question: And the inhibition at 5 ppm ([5]; 96 h, third instar, 4 days)?
Answer: 40%

Question: What about the inhibition at 10 ppm ([5]; 96 h, third instar, 4 days) of the same compound?
Answer: 100%

Question: What about the inhibition at 50 ppm ([5]; 96 h, third instar, 4 days) of the same compound?
Answer: 100%

Question: And the mortality at 0.5 ppm [6]?
Answer: 55%

Question: And the mortality at 1 ppm [6]?
Answer: 100%

Question: And the mortality at 5 ppm [6]?
Answer: 100%

Question: And the mortality at 10 ppm [6]?
Answer: 100%

Question: And the killing at 100 ppm [7]?
Answer: 30%

— patent publication US5362634A, “Process for producing A83543 compounds” (DowElanco, priority 1991, dated 1994)
